Key:
HT-1080 [1] = experiment: Antiproliferative activity against HT1080 cells; conditions: Homo sapiens
[2] = Oral bioavailability in mouse at 30 mg/kg, po; type: ADME, organism-based; conditions: in vivo
[3] = Volume of distribution in mouse at 10 mg/kg, iv; type: ADME, organism-based; parameters: dose 10 mg/kg, route intravenous; conditions: in vivo, read-out: Vdss
[4] = Clearance in mouse at 10 mg/kg, iv; type: ADME, organism-based; parameters: dose 10 mg/kg, route intravenous; conditions: in vivo
[5] = Half life in mouse at 10 mg/kg, iv; type: ADME, organism-based; parameters: dose 10 mg/kg, route intravenous; conditions: in vivo
HT-1080 [6] = experiment: Antiproliferative activity against HT1080 cells in presence of 40 mg/ml HSA; conditions: Homo sapiens
[7] = Cmax in mouse at 30 mg/kg, po; type: ADME, organism-based; parameters: dose 30 mg/kg, route oral; conditions: in vivo

Compound `CCc1ccc(NS(=O)(=O)c2ccc(F)cc2)c(C(=O)O)c1C` has an EC50 (HT-1080 [1]) of 4900 nM.
For `CCc1ccc(NS(=O)(=O)c2ccc(F)cc2)c(C(=O)O)c1OC`, the EC50 (HT-1080 [1]) was 1400 nM.
For `CCc1ccc(NS(=O)(=O)c2ccc(F)cc2CCCN(CC)CC)c(C(=O)O)c1OCCN`, the EC50 (HT-1080 [1]) was 30000 nM.
Compound `CCc1ccc(NS(=O)(=O)c2ccccc2NCCCCN(C)C)c(C(=O)O)c1OC` has a bioavailability [2] of 31%, a Vd [3] of 0.8 L/kg and a clearance [4] of 35 mL/min/kg. The half-life [5] was 18 min, the EC50 (HT-1080 [1]) was 250 nM and the EC50 (HT-1080 [6]) was 370 nM. It also gave a Cmax [7] of 5900 nM.
Work on `CCc1ccc(NS(=O)(=O)c2ccc(F)cc2)c(C(=O)O)c1OCCN` yielded a bioavailability [2] of 38%, a Vd [3] of 1.1 L/kg and a clearance [4] of 50 mL/min/kg. The half-life [5] was 18 min and the Cmax [7] was 2400 nM.
`CCc1ccc(NS(=O)(=O)c2ccccn2)c(C(=O)O)c1C` showed a bioavailability [2] of 86%, a Vd [3] of 5.5 L/kg and a clearance [4] of 26.7 mL/min/kg. For the same compound, the half-life [5] was 144 min, the EC50 (HT-1080 [1]) was 12000 nM and the Cmax [7] was 34000 nM.
Compound `CCc1ccc(NS(=O)(=O)c2ccc(F)cc2/C=C\CN(CC)CC)c(C(=O)O)c1OC` has a bioavailability [2] of 16%, a Vd [3] of 13.8 L/kg and a clearance [4] of 675 mL/min/kg. The half-life [5] was 12 min, the EC50 (HT-1080 [1]) was 70 nM and the EC50 (HT-1080 [6]) was 150 nM. It also gave a Cmax [7] of 100 nM.
For `COc1c(-c2ccoc2)ccc(NS(=O)(=O)c2ccc(F)cc2NCCCN(C)C)c1C(=O)O`, the EC50 (HT-1080 [1]) was 320 nM and the EC50 (HT-1080 [6]) was 2900 nM.
`CCN(CC)C/C=C\c1cc(F)ccc1S(=O)(=O)Nc1ccc(-c2ccoc2)c(OC)c1C(=O)O` gave an EC50 (HT-1080 [1]) of 60 nM and an EC50 (HT-1080 [6]) of 200 nM.
With `COc1c(-c2ccoc2)ccc(NS(=O)(=O)c2ccc(F)cc2)c1C(=O)O` the EC50 (HT-1080 [1]) was 3800 nM.
With `CCc1ccc(NS(=O)(=O)c2ccccc2NCCC2CCCN2C)c(C(=O)O)c1OC` (centres undefined) the bioavailability [2] was 13%, the Vd [3] was 2 L/kg and the clearance [4] was 83.3 mL/min/kg. It also gave a half-life [5] of 18 min, an EC50 (HT-1080 [1]) of 480 nM and an EC50 (HT-1080 [6]) of 1900 nM. It also gave a Cmax [7] of 900 nM.
With `CCCc1ccccc1S(=O)(=O)Nc1ccc(CC)c(OCCN)c1C(=O)O` the EC50 (HT-1080 [1]) was 83000 nM.
For `COc1c(-c2ccoc2)ccc(NS(=O)(=O)c2ccc(F)cc2Br)c1C(=O)O`, the EC50 (HT-1080 [1]) was 11000 nM.
With `CCc1ccc(NS(=O)(=O)c2ccccc2NCCCN2CCCCC2C)c(C(=O)O)c1OC` (centres undefined) the EC50 (HT-1080 [1]) was 370 nM and the EC50 (HT-1080 [6]) was 1200 nM.

Reference: ChEMBL document CHEMBL1144635, “Lead optimization of methionine aminopeptidase-2 (MetAP2) inhibitors containing sulfonamides of 5,6-disubstituted anthranilic acids” (Bioorg Med Chem Lett, 2007)
